In patent publication US20040109845A1, “Method for inhibiting articular cartilage matrix calcification” (priority 2001, published 2004):
Entries after “also recorded” stand apart in the source; their conditions may differ.

Key:
[1] = tested on: TGase activity (tTGase and Factor XIIIa) in meniscal cells; experiment: TGase activity in cultured knee meniscal cells (BP incorporation into N,N-dimethylcasein); type: cell-based, human; details: meniscal cells, 72 hrs, IL-1 or TNFα 10 ng/ml; NMMA 10 μM or A20 transfection
Experimental: Meniscal cells were maintained in DMEM high glucose and supplemented with 10% FCS, 1% L-glutamine, 100 units/ml Penicillin and 50 μg/ml Streptomycin (Omega Scientific, Tarzana, Calif.) and cultured at 37° C. with 5% CO2. In monolayer cell culture studies involving stimulation by TGFE[…] or IL-1, the cells were placed in DMEM high glucose containing 1% FCS, 1% L-glutamine, 100 units/ml Penicillin and 50 μg/ml Streptomycin. In all other studies, the cells were cultured in complete medium (as described above). Only primary or first passage meniscal cells were studied.
TGase activity was measured by modifications to a previously described method (35). Specifically, we coated 96 well ImmunoModule plates (Nunc, Rochester, N.Y.) with 200 μl of 20 mg/ml N,N-dimethylcasein for 1 hr at 23° C. The N,N-dimethylcasein was removed and nonspecific protein binding was blocked by adding 3% BSA in 100 mM Tris, pH 8.5, 150 mM NaCl, 0.05% Tween-20 (TBST) to each well for an additional 1 hr at 23° C. Then, aliquots of 5 μg of total cellular protein from meniscal or TC28 cells that had been lysed and sonicated (in 5 mM Tris HCl, 0.25 M sucrose, 0.2 mM MgSO4, 2 mM DTT, 0.4 mM PMSF, 0.4% Triton X100, pH 7.5), were added to the plate in triplicate. To measure TGase in extracts of whole menisci, 50 mg dry weight of tissue from the central zone of each medial meniscus was used as the source (after solubilization and sonication) for aliquots of 5 μg of soluble protein. Fifty μl of solution A (100 mM Tris, pH 8.5 and 20 mM CaCl2) was added to all samples for TGase assay, followed by the addition of 50 μl of solution B (100 mM Tris, pH 8.5, 40 mM DTT and freshly added 2 mM 5-(Biotinamido) pentylamine (BP)). The plates were incubated for 1 hr at 37° C. The wells were washed once with TBST containing 1 mM EDTA and then three times with TBST. One hundred μl of a 1:500 dilution of streptavidin-AP in 3% BSA/TBST was added to each well for 1 hr at 23° C. The wells were washed twice with TBST, and 200 μl of solution C (100 mM Tris, pH 9.8, mM NaCl, 5 mM MgCl2, 1 mg/ml of freshly added p-nitrophenylphosphate) was added to each well. Readings at OD410 were taken over 15 minutes. Purified guinea pig liver TGase (Sigma) was used to prepare a standard curve. TGase activity was designated as the amount of BP incorporated into casein (per μg cellular DNA, determined chromogenically following precipitation in perchlorate (28), or, where indicated, per μg protein, determined as previously described (28)).
To directly induce expression of each TGase in meniscal cells, 5×10^5 primary cells were plated in 60 mm dishes and allowed to adhere overnight. We modified (28) the manufacturer's protocol for the Lipofectamine Plus kit (Life Technologies, Grand Island, N.Y.). To optimize the transfection of meniscal cells, we added 2.0 ml of serum-free DMEM/F12 containing 0.00015% digitonin to washed cells and incubated for 3 min at 23° C. Then, media was removed, and cells transfected at 37° C. for 7 hrs, followed by removal of the media and addition of complete DMEM high glucose medium. Transfection of each TGase into TC28 cells was done by the same procedure, with the exception that the digitonin permeabilization step was omitted.

[2] = tested on: NO release by meniscal cells; experiment: NO release by cultured meniscal cells (Greiss reaction); type: cell-based, human; details: 72 hrs, IL-1 or TNFα 10 ng/ml, NMMA 10 μM or A20 transfection
Experimental: NO release by 3×10^5 meniscal cells, which were plated and stimulated with TNFα (10 ng/ml) or IL-1 (10 ng/ml), with or without 10 μM NMMA (FIG. 8A), for 72 hrs was studied. Conditioned media were collected and 50 μl aliquots analyzed for NO release using the Greiss Reaction, with results expressed as μmoles released per μg DNA. […] After 72 hrs of incubation with TNFα or IL-1, the conditioned media were collected from the cultured, transfected cells and analyzed in triplicate for NO release, as above. Data pooled from 4 normal donors studied in triplicate for FIGS. 8A and 8B. *p<0.05.
PPi was determined by differential adsorption on activated charcoal of UDP-D-[6-^3H] glucose (Amersham, Chicago, Ill.) from the reaction product 6-phospho [6-^3H] gluconate (28). Units of NTPPPH and AP were designated as micromoles of substrate hydrolyzed per hour (per μg DNA in each sample) (28). NO release by cultured meniscal cells was measured using the Greiss reaction (33). Concentrations or specific activities of PPi, NTPPPH, and AP were equalized for cellular DNA concentrations in each well.

CNC(=N)NCCC[C@H](N)C(=O)O [NMMA, reference compound]
Effect on IL-1 and TNFα-induced TGase activity [1]: blocked the ability of both IL-1 and TNFα to induce TGase activity; also recorded: attenuated LL-1 and TNFα-induced TGase activity
Effect on IL-1 and TNFα-induced NO release [2]: attenuated IL-1 and TNFα-induced NO release; also recorded: suppresses IL-1 and TNFα-induced NO release
